Laboratory results: PubChem BioAssay (NCI)
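Compound exposure: 48 hours, 5 concentrations, 96-well plates. The concentration for 50% growth inhibition is given as GI50. TGI: total growth inhibition.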

Legend:
Test in all cases: DTP human tumour cell line panel, 48 h
K-562 leukemia = test system: K-562 leukemia
CAKI-1 renal = test system: CAKI-1 renal
SK-OV-3 ovarian = test system: SK-OV-3 ovarian
ACHN renal = test system: ACHN renal
IGROV1 ovarian = test system: IGROV1 ovarian
OVCAR-8 ovarian = test system: OVCAR-8 ovarian
HCT-15 colon = test system: HCT-15 colon
NCI-H460 lung = test system: NCI-H460 lung
OVCAR-3 ovarian = test system: OVCAR-3 ovarian
KM12 colon = test system: KM12 colon
T-47D breast = test system: T-47D breast
BT-549 breast = test system: BT-549 breast
786-0 renal = test system: 786-0 renal
MCF7 breast = test system: MCF7 breast
OVCAR-4 ovarian = test system: OVCAR-4 ovarian
SF-295 CNS = test system: SF-295 CNS
HCT-116 colon = test system: HCT-116 colon
SF-268 CNS = test system: SF-268 CNS
UACC-257 melanoma = test system: UACC-257 melanoma
SF-539 CNS = test system: SF-539 CNS
SK-MEL-28 melanoma = test system: SK-MEL-28 melanoma
HS 578T breast = test system: HS 578T breast
MALME-3M melanoma = test system: MALME-3M melanoma
RPMI-8226 leukemia = test system: RPMI-8226 leukemia
UO-31 renal = test system: UO-31 renal
OVCAR-5 ovarian = test system: OVCAR-5 ovarian
A549 NSCLC = test system: A549 NSCLC
HT29 colon = test system: HT29 colon
MOLT-4 leukemia = test system: MOLT-4 leukemia
HCC-2998 colon = test system: HCC-2998 colon
EKVX NSCLC = test system: EKVX NSCLC
MDA-MB-231 breast = test system: MDA-MB-231 breast
DU-145 prostate = test system: DU-145 prostate
NCI-H522 lung = test system: NCI-H522 lung
RXF 393 renal = test system: RXF 393 renal
COLO 205 colon = test system: COLO 205 colon
UACC-62 melanoma = test system: UACC-62 melanoma
M14 melanoma = test system: M14 melanoma
HOP-62 NSCLC = test system: HOP-62 NSCLC
NCI/ADR-RES ovarian = test system: NCI/ADR-RES ovarian
MDA-MB-435 = test system: MDA-MB-435
SK-MEL-2 melanoma = test system: SK-MEL-2 melanoma
NCI-H226 lung = test system: NCI-H226 lung
PC-3 prostate = test system: PC-3 prostate
TK-10 renal = test system: TK-10 renal
SN12C renal = test system: SN12C renal
A498 renal = test system: A498 renal
HL-60(TB) leukemia = test system: HL-60(TB) leukemia
U251 CNS = test system: U251 CNS
HOP-92 NSCLC = test system: HOP-92 NSCLC
SK-MEL-5 melanoma = test system: SK-MEL-5 melanoma
SNB-19 CNS = test system: SNB-19 CNS
SNB-75 CNS = test system: SNB-75 CNS

Structure (SMILES): C=C1C(=O)O[C@H]2[C@H]1CC/C(COC(=O)/C=C/C(=O)NCc1ccc(Cn3c(=O)sn(-c4ccccc4)c3=O)cc1)=C\CC[C@@]1(C)O[C@@H]21
- GI50 (K-562 leukemia): 501 nM
- TGI (K-562 leukemia): 18.4 µM
- GI50 (CAKI-1 renal): 11.7 µM
- TGI (CAKI-1 renal): 24.4 µM
- GI50 (SK-OV-3 ovarian): 30.3 µM
- TGI (SK-OV-3 ovarian): > 100 µM
- GI50 (ACHN renal): 1840 nM
- TGI (ACHN renal): 3.78 µM
- GI50 (IGROV1 ovarian): 2440 nM
- TGI (IGROV1 ovarian): 7.24 µM
- GI50 (OVCAR-8 ovarian): 2320 nM
- TGI (OVCAR-8 ovarian): 5.39 µM
- GI50 (HCT-15 colon): 3.22 µM
- TGI (HCT-15 colon): 13.6 µM
- GI50 (NCI-H460 lung): 5.28 µM
- TGI (NCI-H460 lung): 22.2 µM
- GI50 (OVCAR-3 ovarian): 519 nM
- TGI (OVCAR-3 ovarian): 1720 nM
- GI50 (KM12 colon): 2960 nM
- TGI (KM12 colon): 11.6 µM
- GI50 (T-47D breast): 2220 nM
- TGI (T-47D breast): 7.21 µM
- GI50 (BT-549 breast): 1550 nM
- TGI (BT-549 breast): 2910 nM
- GI50 (786-0 renal): 1610 nM
- TGI (786-0 renal): 3.33 µM
- GI50 (MCF7 breast): 1750 nM
- TGI (MCF7 breast): 7.72 µM
- GI50 (OVCAR-4 ovarian): 2690 nM
- TGI (OVCAR-4 ovarian): 8.09 µM
- GI50 (SF-295 CNS): 18.3 µM
- TGI (SF-295 CNS): 32.7 µM
- GI50 (HCT-116 colon): 382 nM
- TGI (HCT-116 colon): 1440 nM
- GI50 (SF-268 CNS): 2670 nM
- TGI (SF-268 CNS): 10.9 µM
- GI50 (UACC-257 melanoma): 1740 nM
- TGI (UACC-257 melanoma): 4.07 µM
- GI50 (SF-539 CNS): 1840 nM
- TGI (SF-539 CNS): 3.45 µM
- GI50 (SK-MEL-28 melanoma): 1740 nM
- TGI (SK-MEL-28 melanoma): 3.28 µM
- GI50 (HS 578T breast): 3.95 µM
- TGI (HS 578T breast): 35.4 µM
- GI50 (MALME-3M melanoma): 933 nM
- TGI (MALME-3M melanoma): 2410 nM
- GI50 (RPMI-8226 leukemia): 1210 nM
- TGI (RPMI-8226 leukemia): 4.78 µM
- GI50 (UO-31 renal): 2190 nM
- TGI (UO-31 renal): 5.09 µM
- GI50 (OVCAR-5 ovarian): 2690 nM
- TGI (OVCAR-5 ovarian): 5.8 µM
- GI50 (A549 NSCLC): 17.2 µM
- TGI (A549 NSCLC): 37 µM
- GI50 (HT29 colon): 1860 nM
- TGI (HT29 colon): 3.84 µM
- GI50 (MOLT-4 leukemia): 1140 nM
- TGI (MOLT-4 leukemia): 5.2 µM
- GI50 (HCC-2998 colon): 2110 nM
- TGI (HCC-2998 colon): 4.46 µM
- GI50 (EKVX NSCLC): 4.82 µM
- TGI (EKVX NSCLC): 17.6 µM
- GI50 (MDA-MB-231 breast): 2020 nM
- TGI (MDA-MB-231 breast): 3.98 µM
- GI50 (DU-145 prostate): 1950 nM
- TGI (DU-145 prostate): 4.07 µM
- GI50 (NCI-H522 lung): 406 nM
- TGI (NCI-H522 lung): 1770 nM
- GI50 (RXF 393 renal): 1430 nM
- TGI (RXF 393 renal): 2830 nM
- GI50 (COLO 205 colon): 1740 nM
- TGI (COLO 205 colon): 3.47 µM
- GI50 (UACC-62 melanoma): 1610 nM
- TGI (UACC-62 melanoma): 3.26 µM
- GI50 (M14 melanoma): 1860 nM
- TGI (M14 melanoma): 4.37 µM
- GI50 (HOP-62 NSCLC): 13.2 µM
- TGI (HOP-62 NSCLC): 27.1 µM
- GI50 (NCI/ADR-RES ovarian): 47.8 µM
- TGI (NCI/ADR-RES ovarian): > 100 µM
- GI50 (MDA-MB-435): 1730 nM
- TGI (MDA-MB-435): 3.44 µM
- GI50 (SK-MEL-2 melanoma): 2220 nM
- TGI (SK-MEL-2 melanoma): 5.57 µM
- GI50 (NCI-H226 lung): 14.6 µM
- TGI (NCI-H226 lung): 32.8 µM
- GI50 (PC-3 prostate): 2840 nM
- TGI (PC-3 prostate): 9.54 µM
- GI50 (TK-10 renal): 1920 nM
- TGI (TK-10 renal): 3.85 µM
- GI50 (SN12C renal): 2160 nM
- TGI (SN12C renal): 5.95 µM
- GI50 (A498 renal): 3.45 µM
- TGI (A498 renal): 9.55 µM
- GI50 (HL-60(TB) leukemia): 925 nM
- TGI (HL-60(TB) leukemia): 5.3 µM
- GI50 (U251 CNS): 3.46 µM
- TGI (U251 CNS): 12.1 µM
- GI50 (HOP-92 NSCLC): 1850 nM
- TGI (HOP-92 NSCLC): 3.55 µM
- GI50 (SK-MEL-5 melanoma): 2360 nM
- TGI (SK-MEL-5 melanoma): 6.27 µM
- GI50 (SNB-19 CNS): 4.8 µM
- TGI (SNB-19 CNS): 19.4 µM
- GI50 (SNB-75 CNS): 3.41 µM
- TGI (SNB-75 CNS): 15.2 µM
